# Reference: patent US6328728A, “Composition and method for enhancing electrotransport agent delivery” (Alza Corporation, priority 1997, dated 2001)
# Assay: Measurement of circular dichroism (mean residue ellipticity at 222 nm)
# Type: physicochemical
# Details: 32° C.
# Source text: In general, the structure of a polypeptide in an aqueous buffered solution is in constant flux between portions thereof being random coil and alpha-helix configurations. For the polypeptides used in the following examples, the predominant structure is a random coil since the alpha-helix configuration is unstable in the absence of bound surfactant. According to the present invention adding surfactant to an aqueous solution of a polypeptide stabilizes the alpha-helix configuration. Circular dichroism is a measurement of the amount of the alpha-helix configured polypeptide present in the solution. Thus, circular dichroism provides an indirect measurement of the degree of binding of the surfactant to the polypeptide. (See, for example, Epand R. M., Epand R. F., Orlowski R. C., Schuleter R. J., Boni L. T. and Hui S. W., Biochemistry 22, 5074-5084 (1983); Hui, S. W., Epand R. M., Dell K. R., Epand R. F. and Orlowski R. C., Biochimica Biophysica Acta 772, 264-272 (1984); Epand R. M., Epand R. F., and Orlowski R. C., International Journal Peptide Protein Research 25 105-111; Epand R. M., Epand R. F., Orlowski R. C., Seyler J. K. and Colescott R. L., Biochemistry 25, 1964-1968; Epand R. M., Seyler J. K. and Orlowski R. C., European Journal Biochemistry 159, 125-127 (1986); Wiersema P. H., Loeb A. L. and Overbeek, J., Colloid Interface Science 22, 78-99 (1966)).
# The surfactant/peptide circular dichroism (CD) spectra were obtained in a 2 mm path-length cell (110-Q-2 Model, AVIV, Lakewood, N.J.) at 32° C. The cell was initially loaded with 0.60 mL of a solution containing about 0.25 mg/mL of the peptide in 10 mM sodium chloroacetate (pH 3.5) or 10 mM sodium borate (pH 9.0). The buffers were selected to minimize the effect of the temperature on the pH of the solution and to minimize light absorption, thereby optimizing the signal-to-noise ratio (SNR). The peptide concentration was determined by spectrophotometry, with log-log correction for light scattering. The surfactant concentration was increased step-wise by titration of concentrated surfactant stock directly into the CD cell, followed by eight inversions of the cell, with the air bubble providing the mixing turbulence. After mixing, the cell was placed into the AVIV 62 CD spectrometer (AVIV, Lakewood, N.J.). In order to approximate temperature and chemical equilibrium, the sample remained in the spectrometer 5 minutes before a reading was taken. The CD spectrum was taken using a band pass of 1 nm, a data interval of 1 nm, and a data averaging time of 10 seconds. The mean residue ellipticity is the ellipticity divided by the path length in cm times the amino acid residue concentration in decimoles/cm^3. See Methods in Enzymology, Vol 130, pp 208-269, Yang et al, "Calculation of Protein Conformation from Circular Dichroism" (1986).
# The measurement procedures described above were conducted on an aqueous solution of the protein insulinotropin, with TWEEN® 20 (MW=1126 g/mol) as the surfactant, with the following modifications. The insulinotropin donor solution concentration was 0.12 mg/mL. One test was run in 10 mM sodium borate at pH 9.0 and another test in 10 mM sodium chloroacetate at pH 3.5.
# Fractional changes (%δ) are defined as the difference between the reading at a given surfactant concentration (Ec) minus the reading at zero surfactant (E0), the quantity divided by the difference between the reading at saturated surfactant concentration (Es) minus the reading at zero surfactant (E0), i. e. %δ=(Ec -E0)/(Es-E0).
# The measurement procedures described earlier were conducted on an aqueous solution of insulinotropin as the agent, and TWEEN® 40 (molecular weight 1282 g/mol) as the surfactant with the following changes. The insulinotropin concentration was initially 0.29 mg/mL, and 0.21 mg/mL after the final TWEEN® 40 addition and the temperature was held at 32° C. Two tests were conducted at two different concentrations of TWEEN® 40. […]
substance,measurement,setting,value
Salmon Calcitonin [reference compound],Ellipticity (mean residue at 222 nm),"pH 3.5, 12 mM sodium chloroacetate, dodecyl sulfobetaine 0, calcitonin 0.087 mM",-4052 deg-cm^2 /dmol
same,Ellipticity (mean residue at 222 nm),"pH 3.5, 12 mM sodium chloroacetate, dodecyl sulfobetaine 2.44 mM, calcitonin 0.085 mM",-4270 deg-cm^2 /dmol
same,Ellipticity (mean residue at 222 nm),"pH 3.5, 12 mM sodium chloroacetate, dodecyl sulfobetaine 4.76 mM, calcitonin 0.083 mM",-7984 deg-cm^2 /dmol
same,Ellipticity (mean residue at 222 nm),"pH 3.5, 12 mM sodium chloroacetate, dodecyl sulfobetaine 5.52 mM, calcitonin 0.082 mM",-8744 deg-cm^2 /dmol
same,Ellipticity (mean residue at 222 nm),"pH 3.5, 12 mM sodium chloroacetate, dodecyl sulfobetaine 6.25 mM, calcitonin 0.081 mM",-9436 deg-cm^2 /dmol
same,Ellipticity (mean residue at 222 nm),"pH 3.5, 12 mM sodium chloroacetate, dodecyl sulfobetaine 7.69 mM, calcitonin 0.080 mM",-10475 deg-cm^2 /dmol
same,Ellipticity (mean residue at 222 nm),"pH 3.5, 12 mM sodium chloroacetate, dodecyl sulfobetaine 9.09 mM, calcitonin 0.079 mM",-11072 deg-cm^2 /dmol
same,Ellipticity (mean residue at 222 nm),"pH 3.5, 12 mM sodium chloroacetate, dodecyl sulfobetaine 10.4 mM, calcitonin 0.078 mM",-11460 deg-cm^2 /dmol
same,Ellipticity (mean residue at 222 nm),"pH 3.5, 12 mM sodium chloroacetate, dodecyl sulfobetaine 13.0 mM, calcitonin 0.076 mM",-11924 deg-cm^2 /dmol
same,Ellipticity (mean residue at 222 nm),"pH 3.5, 12 mM sodium chloroacetate, dodecyl sulfobetaine 15.5 mM, calcitonin 0.073 mM",-12070 deg-cm^2 /dmol
same,Ellipticity (mean residue at 222 nm),"pH 3.5, 12 mM sodium chloroacetate, dodecyl sulfobetaine 21.1 mM, calcitonin 0.069 mM",-12285 deg-cm^2 /dmol
same,Ellipticity (mean residue at 222 nm),"pH 3.5, 12 mM sodium chloroacetate, dodecyl sulfobetaine 27.7 mM, calcitonin 0.063 mM",-12133 deg-cm^2 /dmol
same,Ellipticity (mean residue at 222 nm),"pH 5.0, 4 mM piperazine-HCl, dodecyl sulfobetaine 0, calcitonin 0.076 mM",-3919 deg-cm^2 /dmol
same,Ellipticity (mean residue at 222 nm),"pH 5.0, 4 mM piperazine-HCl, dodecyl sulfobetaine 0.83 mM, calcitonin 0.076 mM",-3950 deg-cm^2 /dmol
same,Ellipticity (mean residue at 222 nm),"pH 5.0, 4 mM piperazine-HCl, dodecyl sulfobetaine 1.64 mM, calcitonin 0.075 mM",-4011 deg-cm^2 /dmol
same,Ellipticity (mean residue at 222 nm),"pH 5.0, 4 mM piperazine-HCl, dodecyl sulfobetaine 3.23 mM, calcitonin 0.074 mM",-5209 deg-cm^2 /dmol
same,Ellipticity (mean residue at 222 nm),"pH 5.0, 4 mM piperazine-HCl, dodecyl sulfobetaine 4.76 mM, calcitonin 0.073 mM",-7108 deg-cm^2 /dmol
same,Ellipticity (mean residue at 222 nm),"pH 5.0, 4 mM piperazine-HCl, dodecyl sulfobetaine 6.25 mM, calcitonin 0.072 mM",-8348 deg-cm^2 /dmol
same,Ellipticity (mean residue at 222 nm),"pH 5.0, 4 mM piperazine-HCl, dodecyl sulfobetaine 7.69 mM, calcitonin 0.071 mM",-9127 deg-cm^2 /dmol
same,Ellipticity (mean residue at 222 nm),"pH 5.0, 4 mM piperazine-HCl, dodecyl sulfobetaine 9.77 mM, calcitonin 0.069 mM",-9915 deg-cm^2 /dmol
same,Ellipticity (mean residue at 222 nm),"pH 5.0, 4 mM piperazine-HCl, dodecyl sulfobetaine 12.4 mM, calcitonin 0.067 mM",-10469 deg-cm^2 /dmol
same,Ellipticity (mean residue at 222 nm),"pH 5.0, 4 mM piperazine-HCl, dodecyl sulfobetaine 18.4 mM, calcitonin 0.062 mM",-10999 deg-cm^2 /dmol
same,Ellipticity (mean residue at 222 nm),"pH 5.0, 4 mM piperazine-HCl, dodecyl sulfobetaine 26.4 mM, calcitonin 0.056 mM",-11188 deg-cm^2 /dmol
same,Ellipticity (mean residue at 222 nm),"pH 5.0, 4 mM piperazine-HCl, dodecyl sulfobetaine 35.8 mM, calcitonin 0.049 mM",-11051 deg-cm^2 /dmol
same,Ellipticity (mean residue at 222 nm),"pH 6.5, 15 mM sodium cacodylate, dodecyl sulfobetaine 0, calcitonin 0.071 mmol/l",-4569 deg-cm^2 /dmol
same,Ellipticity (mean residue at 222 nm),"pH 6.5, 15 mM sodium cacodylate, dodecyl sulfobetaine 3.28 mmol/l, calcitonin 0.070 mmol/l",-6725 deg-cm^2 /dmol
same,Ellipticity (mean residue at 222 nm),"pH 6.5, 15 mM sodium cacodylate, dodecyl sulfobetaine 6.45 mmol/l, calcitonin 0.068 mmol/l",-10182 deg-cm^2 /dmol
same,Ellipticity (mean residue at 222 nm),"pH 6.5, 15 mM sodium cacodylate, dodecyl sulfobetaine 9.52 mmol/l, calcitonin 0.067 mmol/l",-11095 deg-cm^2 /dmol
same,Ellipticity (mean residue at 222 nm),"pH 6.5, 15 mM sodium cacodylate, dodecyl sulfobetaine 12.5 mmol/l, calcitonin 0.066 mmol/l",-11386 deg-cm^2 /dmol
same,Ellipticity (mean residue at 222 nm),"pH 6.5, 15 mM sodium cacodylate, dodecyl sulfobetaine 18.2 mmol/l, calcitonin 0.064 mmol/l",-11744 deg-cm^2 /dmol
same,Ellipticity (mean residue at 222 nm),"pH 6.5, 15 mM sodium cacodylate, dodecyl sulfobetaine 28.6 mmol/l, calcitonin 0.061 mmol/l",-11862 deg-cm^2 /dmol
same,Ellipticity (mean residue at 222 nm),"pH 6.5, 15 mM sodium cacodylate, dodecyl sulfobetaine 42.1 mmol/l, calcitonin 0.056 mmol/l",-11844 deg-cm^2 /dmol
